Values of other authors as cited in patent US7824714B2, “Chinese herb extract for treating dementia and preparation method thereof” (Development Center for Biotechnology, priority 2008, dated 2010).

How the values were obtained:
[1] = test system: brain cells; details: animal experiments
[2] = test system: mice having scopolamine dementia and Aβ dementia

OC[C@H]1O[C@@H](Oc2c(O)cc(O)cc2C=Cc2ccc(O)cc2)[C@H](O)[C@@H](O)[C@@H]1O [stilbene glucoside compound, 3,4′,5-trihydroxy-2-stilbenyl beta-D-glucoside]
damage of brain cells caused by β-amyloid protein and hydrogen peroxide [1]: capable of preventing | memory capacity [2]: increasing
